The test system of test [1] is Ab2, monoclonal antibody receptor cross reactive to f-PSA and PSA-ACT. The test is classed as binding.
The format of test [2] is binding. As to conditions: CT 5 ng/ml; PSA 100 ng/ml; BSA 10 microgram/ml; phosphate buffer pH 6.7.
Test [3] has as its system monoclonal antibodies for PSA (Ab1). The format is binding.
The format of test [4] is binding. As to conditions: BT 5 ng/ml; PSA 100 ng/ml; BSA 10 microgram/ml; phosphate buffer pH 6.7.
Setting [5] is: f-PSA 1700 pg/ml, p-type silicon nanowire.

Experimental findings from patent publication US8232584B2 (priority 2005, dated 2012) are described below.

Where two headings read alike, the source gives them in different places.

In the case of “PSA-ACT: PSA-alpha-1-antichymotrypsin complex, cancer marker”, the “Conductance Change NW2-Ab2” value in test [1] (PSA-ACT 0.32 pg/ml) was found to be 19 nS; in test [1] (PSA-ACT 3.2 pg/ml), 67 nS; in test [1] (PSA-ACT 320 pg/ml) it was 124 nS; in test [1] (PSA-ACT 3200 pg/ml), 143 nS.
Consider “f-PSA: free prostate specific antigen, cancer marker protein, purchased from Calbiochem”, for which the “conductance response to injection” value in test [2] and in test [4] was “no response was observed” throughout. Besides, the “Conductance Change NW1-Ab1” value in test [3] (f-PSA 0.085 pg/ml) is on record as 15 nS; in test [3] (f-PSA 0.85 pg/ml), 45 nS; in test [3] (f-PSA 8.5 pg/ml), 98 nS; in test [3] (f-PSA 850 pg/ml) it was 185 nS; in test [3] (setting [5]) it was 192 nS. The “Conductance Change NW2-Ab2” value in test [1] (f-PSA 0.085 pg/ml) is 10 nS; in test [1] (f-PSA 0.85 pg/ml) it was 50 nS; in test [1] (f-PSA 8.5 pg/ml), 81 nS; in test [1] (f-PSA 850 pg/ml), 132 nS; in test [1] (setting [5]), 154 nS.
